Data reported in patent US20080176792A1, “VEGFR-1 TARGETING PEPTIDES” (priority 2000, published 2008).
Ends that are not written are not given here.

Assays:
[1] = system: urothelial tumor cell line T24; assay: Phage attachment to subconfluent cell monolayer; format: cell-based, human; details: 1x10^8 T.U. per well
Excerpt: FIG. 7. Binding of selected phage clones to the human breast cancer cell line MDA-MBA435 (white bars) as well as the urothelial tumor cell lines T24 (light grey bars) and RT4 (dark grey bars). Insertless fd-tet phage were included as controls. Results are given as mean of triplicate wells relative to binding of fd-tet phage, that was set as 1. Input of phage was 1×10^8 T.U. per well. Bound phage were detected after intensive washing by infection with log phase K91 bacteria and plating of serial dilutions.
Binding of selected phage was examined with human adherent primary urothelial cells, the breast cancer cell line MDA-MB-435 and the transitional carcinoma cell lines RT4 and T24. All cells were grown to subconfluency in 48 well plates and free binding sites were blocked with 800 μl 30% FCS/DMEM (blocking medium) for 1 hour at 37° C. The blocking solution was then replaced by 200 μl 10% FCS/DMEM (washing medium) containing 1×10^8 cfu of each phage per well. After incubation for 2 hours at 4° C. to prevent unspecific endocytosis, unbound phage were removed by washing 7 times with 500 μl washing medium. For competition experiments increasing concentrations of the corresponding peptide or a control peptide (CARAC, SEQ ID NO:5) were added during the incubation. Bound phage were determined by infection with 500 μl log phase K91 culture and plating of serial dilutions. […]

human ureter mucosa = assay: Dot blot chamber assay after removal of the GAG-layer; format: cell-based; details: human ureter sample
Experimental: (§1) Removal of the glucosaminoglycan- (GAG-) layer on intact mucosa samples was performed as a dot blot chamber assay. Half of the wells were incubated with 200 μl 0.1M HCl per well for 2 min, intensely rinsed with blocking solution and both parts blocked as before. Results are given relative to fd-tet phage to untreated mucosa, that was set to 1.
(§2) Using the same assay the influence of the glucosaminoglycan (GAG) layer on binding of several phage to intact mucosa was examined. The GAG-layer was removed as described above. Half of the mucosa of human ureter and porcine bladder specimens were treated inside the dot blot chamber with […] for 2 min, extensively washed and the binding assay performed as before.

porcine bladder mucosa = assay: as above; format: cell-based; details: 0.1M HCl for 2 min; relative to untreated mucosa set to 1
Experimental: FIG. 10. Influence of the GAG-layer on phage binding. In the dot blot chamber assay portions of a porcine bladder mucosa were treated with 0.1M HCl for 2 min prior to remove the GAG-layer. Binding to treated surface is given relative to untreated surface, that was set as 1. Bound phage were detected after intensive washing by infection with log phase K91 bacteria and plating of serial dilutions.
as §1, §2

leptin = details: cited from earlier work
human bone marrow cells = assay: Binding of single phage clones to bone marrow cells by BRASIL; format: cell-based; details: single phage clone; negative control fd-tet phage, positive control RGD-4C phage
Excerpt: Fresh human ribs removed during surgery for access to underlying tumors were sectioned to expose the bone marrow surface. No significant damage to the bone marrow was inflicted to the tissue and the morphology was well preserved during after the procedure. The bone samples were washed (gently) 5 times with ice cold DMEM/0.15% BSA (sterile filtered). The marrow was removed by gently scraping cells from the bone. Cells were washed twice by centrifugation and resuspension in DMEM/BSA to remove debris and fat. Cells were resuspended in DMEM/BSA (about 10^7 cells per ml) and incubated with a phage display library (10^9 TU) prepared as described above. After incubation for 3 hours on ice, the cells were centrifuged through an organic phase consisting of a 9:1 mixture of dibutylphthalate:cyclohexane. Centrifugation occurred for 10 min at 10,000×g. The bottom of the centrifuge tube was snap frozen at −80° C. and phage were recovered by bacterial infection as described above. The selection was repeated for 3 more rounds of BRASIL and 90 clones were sequenced.
A system has been designed to analyze the data resulting from peptide library screenings, adapted from the SAS package. The system is available upon request from the M. D. Anderson Cancer Center. […] The positive control was phage containing an RGD-4C insert, which is known to bind to bone marrow. […]

[2] = molecular target: T1, recombinant human VEGFR-1 (human, UniProt P17948 27-758, limits assumed); assay: phage binding to immobilized receptor, against insertless fd-tet phage (not shown)
T1 construct: Bought; immobilized on microtiter wells (1 ug in 50 ul PBS); also called Flt1
T1 sequence (P17948 27-758 limits assumed): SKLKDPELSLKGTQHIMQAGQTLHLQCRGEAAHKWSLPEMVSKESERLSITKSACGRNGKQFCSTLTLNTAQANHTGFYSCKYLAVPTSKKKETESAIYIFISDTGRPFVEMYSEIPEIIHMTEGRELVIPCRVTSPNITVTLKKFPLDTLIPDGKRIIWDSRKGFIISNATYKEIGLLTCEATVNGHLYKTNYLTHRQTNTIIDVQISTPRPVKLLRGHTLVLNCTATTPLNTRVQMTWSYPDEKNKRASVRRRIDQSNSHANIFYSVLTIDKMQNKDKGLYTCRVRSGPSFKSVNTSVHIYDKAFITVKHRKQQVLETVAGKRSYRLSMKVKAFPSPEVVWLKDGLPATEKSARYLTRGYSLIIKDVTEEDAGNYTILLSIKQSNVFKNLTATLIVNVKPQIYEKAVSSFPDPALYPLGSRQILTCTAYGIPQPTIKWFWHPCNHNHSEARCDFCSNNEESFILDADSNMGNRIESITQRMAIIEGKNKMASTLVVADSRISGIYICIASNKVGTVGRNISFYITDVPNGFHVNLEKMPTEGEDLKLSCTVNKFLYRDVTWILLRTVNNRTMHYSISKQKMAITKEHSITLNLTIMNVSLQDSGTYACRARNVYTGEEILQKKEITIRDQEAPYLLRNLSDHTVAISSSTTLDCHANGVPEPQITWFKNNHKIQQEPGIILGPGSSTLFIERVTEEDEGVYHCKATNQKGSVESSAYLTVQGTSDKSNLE
Experimental: (§3) Human VEGFR-1, human VEGFR-2, rat NRP-1, and rat NRP-2 (1 μg in 50 μl of PBS) were immobilized on microtiter well plates overnight at 4° C. The wells were washed twice with PBS, blocked with PBS containing 3% BSA for 2 h at room temperature, and then incubated with 10⁹ TU of either […] […] (SEQ ID NO:11) phage, or fd-tet phage in 50 μl of PBS/1.5% BSA. After 1 hr at room temperature, wells were washed nine times with PBS and phage were recovered by bacterial infection. Serial dilutions were plated onto Luria-Bertani (LB) medium supplemented with tetracycline. VEGF₁₆₅, PDGF-BB, or synthetic peptides were used at the indicated concentrations and pre-incubated with the immobilized proteins to evaluate competitive inhibition of phage binding.

[3] = molecular target: BSA (bovine serum albumin) (bovine, UniProt P02769 25-607); assay: phage binding to immobilized protein, recovery by bacterial infection
BSA (bovine serum albumin), sequence (P02769 25-607 limits assumed): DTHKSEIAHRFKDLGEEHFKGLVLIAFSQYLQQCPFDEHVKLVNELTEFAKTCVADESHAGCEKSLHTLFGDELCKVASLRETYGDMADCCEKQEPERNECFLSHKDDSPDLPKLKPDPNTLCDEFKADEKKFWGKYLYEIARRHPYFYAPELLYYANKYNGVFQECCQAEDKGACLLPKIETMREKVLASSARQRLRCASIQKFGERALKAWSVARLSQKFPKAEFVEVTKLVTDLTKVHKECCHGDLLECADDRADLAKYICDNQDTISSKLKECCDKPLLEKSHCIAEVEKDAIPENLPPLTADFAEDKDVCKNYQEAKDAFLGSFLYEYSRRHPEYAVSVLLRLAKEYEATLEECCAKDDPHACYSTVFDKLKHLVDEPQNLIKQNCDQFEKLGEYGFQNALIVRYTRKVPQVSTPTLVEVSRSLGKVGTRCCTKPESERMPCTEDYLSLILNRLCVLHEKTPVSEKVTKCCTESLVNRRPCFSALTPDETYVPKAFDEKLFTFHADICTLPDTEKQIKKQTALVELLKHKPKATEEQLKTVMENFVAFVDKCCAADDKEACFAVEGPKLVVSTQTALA

recombinant rat NRP-1/Fc = molecular target: T2, recombinant rat NRP-1/Fc (rat; human, UniProt Q9QWJ9 22-854, limits assumed); assay: phage binding to immobilized receptor, recovery by bacterial infection
T2 construct: Bought receptor/Fc chimera; also called rat Neuropilin-1; neuropilin-1; not shown: Fc region of human IgG1
T2 sequence (looked up): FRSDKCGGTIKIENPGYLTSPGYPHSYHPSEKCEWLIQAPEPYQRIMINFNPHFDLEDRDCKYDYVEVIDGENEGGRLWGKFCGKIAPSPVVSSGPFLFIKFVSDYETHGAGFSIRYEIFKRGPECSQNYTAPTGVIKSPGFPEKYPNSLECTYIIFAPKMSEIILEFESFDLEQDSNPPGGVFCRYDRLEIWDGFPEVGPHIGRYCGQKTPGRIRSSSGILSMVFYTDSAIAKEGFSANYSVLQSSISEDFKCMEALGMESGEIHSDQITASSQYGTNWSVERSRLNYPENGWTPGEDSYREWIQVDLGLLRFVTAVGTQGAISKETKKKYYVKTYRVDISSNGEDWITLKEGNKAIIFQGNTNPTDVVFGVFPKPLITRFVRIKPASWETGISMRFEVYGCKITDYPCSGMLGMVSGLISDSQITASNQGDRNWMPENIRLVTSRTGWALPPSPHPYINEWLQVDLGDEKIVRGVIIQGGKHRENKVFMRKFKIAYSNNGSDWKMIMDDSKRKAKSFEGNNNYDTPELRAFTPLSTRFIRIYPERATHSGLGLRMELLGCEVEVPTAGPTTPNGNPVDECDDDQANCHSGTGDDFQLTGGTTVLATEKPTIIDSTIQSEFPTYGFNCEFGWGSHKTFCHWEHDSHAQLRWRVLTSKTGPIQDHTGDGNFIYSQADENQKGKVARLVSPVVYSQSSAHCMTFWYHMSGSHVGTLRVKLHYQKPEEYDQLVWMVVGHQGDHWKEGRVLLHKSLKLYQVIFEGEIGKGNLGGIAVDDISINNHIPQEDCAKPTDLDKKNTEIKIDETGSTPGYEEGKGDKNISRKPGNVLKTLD
Experimental: as §3

recombinant rat NRP-2/Fc = molecular target: T3, recombinant rat NRP-2/Fc (rat; human, UniProt O35276 23-858, limits assumed); assay: as above
T3 construct: Bought receptor/Fc chimera; also called neutropilin-2 (NRP-2) receptor; not shown: Fc region of human IgG1
T3 sequence (looked up): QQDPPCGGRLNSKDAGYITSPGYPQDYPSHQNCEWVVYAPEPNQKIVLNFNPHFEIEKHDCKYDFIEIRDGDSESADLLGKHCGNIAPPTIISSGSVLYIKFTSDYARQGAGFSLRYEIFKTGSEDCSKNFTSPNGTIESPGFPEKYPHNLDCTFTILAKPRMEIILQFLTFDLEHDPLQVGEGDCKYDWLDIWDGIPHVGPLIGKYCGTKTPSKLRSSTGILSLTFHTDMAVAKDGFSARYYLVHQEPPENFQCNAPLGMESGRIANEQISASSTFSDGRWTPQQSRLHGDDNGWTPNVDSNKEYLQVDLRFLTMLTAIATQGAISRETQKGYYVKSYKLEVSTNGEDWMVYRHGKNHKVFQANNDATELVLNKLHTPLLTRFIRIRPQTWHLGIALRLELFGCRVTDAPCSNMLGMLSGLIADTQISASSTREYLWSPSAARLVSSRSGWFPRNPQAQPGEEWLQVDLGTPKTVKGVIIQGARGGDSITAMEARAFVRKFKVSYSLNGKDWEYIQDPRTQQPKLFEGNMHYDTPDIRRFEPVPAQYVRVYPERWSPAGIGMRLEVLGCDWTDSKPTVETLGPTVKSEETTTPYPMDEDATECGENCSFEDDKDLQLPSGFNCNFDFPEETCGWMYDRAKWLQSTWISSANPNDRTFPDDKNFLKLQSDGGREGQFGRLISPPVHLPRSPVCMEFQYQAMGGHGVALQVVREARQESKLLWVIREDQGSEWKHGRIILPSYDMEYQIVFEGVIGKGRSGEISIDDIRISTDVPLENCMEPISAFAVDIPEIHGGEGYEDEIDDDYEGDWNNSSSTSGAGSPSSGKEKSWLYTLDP
Experimental: as §3

[4] = molecular target: T4, recombinant human VEGFR-2/Fc (human, UniProt P35968 20-764); assay: as above
T4 construct: Bought receptor/Fc chimera; not shown: Fc region of human IgG1
T4 sequence (P35968 20-764 limits assumed): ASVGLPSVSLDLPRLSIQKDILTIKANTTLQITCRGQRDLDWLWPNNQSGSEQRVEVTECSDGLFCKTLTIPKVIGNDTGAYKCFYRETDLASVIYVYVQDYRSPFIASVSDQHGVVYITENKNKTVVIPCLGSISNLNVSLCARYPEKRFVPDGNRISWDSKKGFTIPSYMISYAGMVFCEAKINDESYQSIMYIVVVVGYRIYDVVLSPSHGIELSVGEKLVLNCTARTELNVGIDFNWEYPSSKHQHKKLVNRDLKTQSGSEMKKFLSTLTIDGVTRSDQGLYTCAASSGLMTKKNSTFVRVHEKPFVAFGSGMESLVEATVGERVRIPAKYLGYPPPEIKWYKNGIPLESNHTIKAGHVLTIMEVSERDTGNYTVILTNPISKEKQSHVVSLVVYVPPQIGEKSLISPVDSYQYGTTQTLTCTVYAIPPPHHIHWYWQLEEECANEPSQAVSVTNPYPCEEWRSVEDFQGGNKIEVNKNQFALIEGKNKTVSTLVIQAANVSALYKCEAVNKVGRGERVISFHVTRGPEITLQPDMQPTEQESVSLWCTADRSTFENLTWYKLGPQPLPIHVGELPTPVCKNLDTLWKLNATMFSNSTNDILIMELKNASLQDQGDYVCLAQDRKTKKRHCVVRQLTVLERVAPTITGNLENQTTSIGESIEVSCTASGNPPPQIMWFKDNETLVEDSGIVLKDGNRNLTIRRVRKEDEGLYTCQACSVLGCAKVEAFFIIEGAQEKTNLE
Experimental: as §3

CGQEISGLC
binding to T24 tumor cells [1]: bound

CWGGLSGLC
increase of phage binding after GAG-removal (human ureter mucosa): 3.4 fold
increase of phage binding after GAG-removal (porcine bladder mucosa): 4.2 fold

DLLHLLAFSKSCSLLP
leptin activity in vivo (leptin): block leptin activity

CLGWRAAAC
binding to human bone marrow cells (human bone marrow cells): over twice as high as the positive control

B1: phage clone-19 displaying the peptide CPQPRPLC (SEQ ID NO:6) (peptide)
peptide: CPQPRPLC
modifications: not fully specified (bridges); cysteine pairing not given here; also: displayed on pIII of filamentous phage
notes: Tested as whole filamentous phage (10^9 TU per well), not as free peptide; The peptide is expressed in the pIII protein; also called clone 19 phage; not shown: The phage pIII coat protein that carries the insert, and the residues flanking the insert
fold enrichment of binding over fd-tet phage [2]: > 1000 fold
binding result [3]: no binding (tested: 10^9 TU of phage in 50 ul)
binding result (recombinant rat NRP-1/Fc): binds
binding result (recombinant rat NRP-2/Fc): no binding (tested: 10^9 TU of phage in 50 ul)
binding result [4]: no binding (tested: 10^9 TU of phage in 50 ul)
